This is an account of results in US12581252B2, “Substituted pyrrolo[3,4-b]pyridines as PI3K-α inhibitors” (Relay Therapeutics, Inc., priority 2020, dated 2026).

This test deals with H1047R PIK3CA enzyme (Homo sapiens, UniProt P42336, H1047R). The test is described as follows: ADP-Glo Biochemical PIK3CA Kinase Assay. A general note: ADP-Glo turns the ADP formed in a reaction into a luminescent signal.
Chain of H1047R PIK3CA enzyme (P42336 whole entry H1047R): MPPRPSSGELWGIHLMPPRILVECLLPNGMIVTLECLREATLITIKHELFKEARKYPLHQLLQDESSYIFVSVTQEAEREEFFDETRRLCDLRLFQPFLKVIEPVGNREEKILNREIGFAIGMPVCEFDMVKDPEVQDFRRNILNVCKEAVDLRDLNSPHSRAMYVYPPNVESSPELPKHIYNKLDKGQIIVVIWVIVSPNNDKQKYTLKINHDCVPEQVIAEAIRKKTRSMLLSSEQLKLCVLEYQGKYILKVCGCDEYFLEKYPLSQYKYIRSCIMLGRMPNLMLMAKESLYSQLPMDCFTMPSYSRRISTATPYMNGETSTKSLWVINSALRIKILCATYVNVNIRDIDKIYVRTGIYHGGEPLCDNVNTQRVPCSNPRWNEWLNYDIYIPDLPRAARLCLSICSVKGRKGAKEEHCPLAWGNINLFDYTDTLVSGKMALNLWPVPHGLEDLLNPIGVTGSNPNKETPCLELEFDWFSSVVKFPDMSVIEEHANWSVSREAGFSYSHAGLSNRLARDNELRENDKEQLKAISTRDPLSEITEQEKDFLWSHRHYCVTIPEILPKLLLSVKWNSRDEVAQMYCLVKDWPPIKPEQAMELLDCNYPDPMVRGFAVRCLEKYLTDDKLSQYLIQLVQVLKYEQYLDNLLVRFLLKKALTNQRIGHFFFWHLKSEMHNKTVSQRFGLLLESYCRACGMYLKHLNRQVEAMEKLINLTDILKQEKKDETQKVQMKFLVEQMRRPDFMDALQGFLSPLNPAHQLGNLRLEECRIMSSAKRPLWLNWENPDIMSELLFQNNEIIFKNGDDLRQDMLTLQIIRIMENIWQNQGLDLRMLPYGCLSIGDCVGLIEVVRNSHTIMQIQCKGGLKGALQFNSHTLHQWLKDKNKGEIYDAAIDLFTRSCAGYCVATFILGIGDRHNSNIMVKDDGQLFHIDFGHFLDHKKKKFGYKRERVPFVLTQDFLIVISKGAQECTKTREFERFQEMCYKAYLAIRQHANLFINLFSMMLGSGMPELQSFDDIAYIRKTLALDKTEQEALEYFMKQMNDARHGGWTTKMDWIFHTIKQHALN
Chain of H1047R PIK3CA enzyme (P27986 whole entry partner): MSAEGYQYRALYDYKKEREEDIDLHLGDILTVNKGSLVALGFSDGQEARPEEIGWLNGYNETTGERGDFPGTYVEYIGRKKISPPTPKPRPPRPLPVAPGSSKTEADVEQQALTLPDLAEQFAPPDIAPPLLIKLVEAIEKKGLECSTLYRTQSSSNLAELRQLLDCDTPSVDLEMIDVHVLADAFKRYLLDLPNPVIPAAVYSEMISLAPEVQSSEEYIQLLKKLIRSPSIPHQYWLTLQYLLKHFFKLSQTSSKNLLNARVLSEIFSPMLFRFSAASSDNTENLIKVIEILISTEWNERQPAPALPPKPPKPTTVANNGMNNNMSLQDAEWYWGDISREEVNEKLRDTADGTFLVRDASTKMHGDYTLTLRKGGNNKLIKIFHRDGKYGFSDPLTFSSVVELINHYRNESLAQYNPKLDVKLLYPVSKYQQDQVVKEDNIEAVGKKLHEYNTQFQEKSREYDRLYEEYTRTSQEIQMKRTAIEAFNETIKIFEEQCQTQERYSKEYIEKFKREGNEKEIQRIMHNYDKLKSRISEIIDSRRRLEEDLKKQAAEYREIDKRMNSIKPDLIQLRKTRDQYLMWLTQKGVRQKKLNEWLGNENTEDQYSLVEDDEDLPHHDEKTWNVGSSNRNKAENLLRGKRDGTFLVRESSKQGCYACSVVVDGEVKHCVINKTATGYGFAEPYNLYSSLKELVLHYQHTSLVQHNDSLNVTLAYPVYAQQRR
A word on the IC50: it is the concentration that gives 50% inhibition. `O=C1NC(c2cc(F)ccc2Cl)c2c(NC(=O)N3CCc4ccccc43)ccnc21` (stereo not shown) [Compound I-257] gave an IC50 of 500 to 1000 nM.

Compound `Cc1ccccc1C1NC(=O)c2cccc(NC(=O)c3ncn4ccc(Cl)cc34)c21` (stereo not shown) [Compound I-258, 7-chloro-N-[3-(2-methylphenyl)-1-oxo-2,3-dihydro-1H-isoindol-4-yl]imidazo[1,5-a]pyridine-1-carboxamide] registered an IC50 of 1000 to 10000 nM. The compound `O=C(Nc1cccc2c1C(C1CC1)NC2=O)c1cc(F)cc(C(F)(F)F)c1` (stereo not shown) [Compound I-259] displayed an IC50 of 10000 to 100000 nM. In the case of `Cc1ccccc1C1NC(=O)c2cc(CN)cc(NC(=O)c3cc(F)cc(C(F)(F)F)c3)c21` (stereo not shown) [Compound I-260], the concentration for half-maximal inhibition (IC50) was in the range of 100 to 500 nM. In the case of `Cc1ccccc1C1NC(=O)c2c(C(=O)NCC(N)=O)ccc(NC(=O)c3nsc4ccccc34)c21` (stereo not shown) [Compound I-261], the IC50 was ≤ 100 nM. Then `Cc1ccccc1C1NC(=O)c2c(N)ncc(NC(=O)c3cc(F)cc(C(F)(F)F)c3)c21` (stereo not shown) [Compound I-262, N-(4-Amino-3-oxo-1-(o-tolyl)-2,3-dihydro-1H-pyrrolo[3,4-c]pyridin-7-yl)-3-fluoro-5-(trifluoromethyl)benzamide], with 100 to 500 nM; and `CC(C)(O)c1cc(NC(=O)c2cc(F)cc(C(F)(F)F)c2)c2c(c1)C(=O)N[C@@H]2c1cc(F)ccc1C(F)F` [Compound I-263], with 10000 to 100000 nM. The compound `Cc1ccccc1C1NC(=O)c2c(C(N)=O)ncc(NC(=O)c3cc(F)cc(C(F)(F)F)c3)c21` (stereo not shown) [Compound I-265] displayed an IC50 of 100 to 500 nM. With `Cc1ccccc1C1NC(=O)c2cc(C(C)C)cc(NC(=O)c3cc(F)cc(C(F)(F)F)c3)c21` (stereo not shown) [Compound I-266, 3-Fluoro-N-[3-(2-methylphenyl)-6-(isopropyl)-1-oxo-2,3-dihydro-1H-isoindol-4-yl]-5-(trifluoromethyl)benzamide], the IC50 fell in the range of 100 to 500 nM. For `CC(C)(O)c1cc(NC(=O)c2cc(Cl)n3ccccc23)c2c(c1)C(=O)NC2c1cc(F)ccc1C(F)F` (stereo not shown) [Compound I-267] the value was ≤ 100 nM.

For `Cc1ccccc1C1NC(=O)c2cc(CC(C)C)cc(NC(=O)c3cc(F)cc(C(F)(F)F)c3)c21` (stereo not shown) [Compound I-268], the IC50 is ≤ 100 nM. Consider `Nc1cc(NC(=O)c2cc(F)cc(C(F)(F)F)c2)cc2c1C(c1cc(F)ccc1C(F)F)NC2=O` (stereo not shown) [Compound I-269], for which the IC50 lay within 10000 to 100000 nM. With `O=C(Nc1cc(C(O)C(F)(F)F)cc2c1C(c1cc(F)ccc1Cl)NC2=O)c1cc(F)cc(C(F)(F)F)c1` (stereo not shown) [Compound I-270, N-(3-(2-chloro-5-fluorophenyl)-1-oxo-6-(2,2,2-trifluoro-1-hydroxyethyl)isoindolin-4-yl)-3-fluoro-5-(trifluoromethyl)benzamide], the IC50 is ≤ 100 nM. `CC(C)(O)c1cc(NC(=O)c2cc(F)cc(C(F)(F)F)c2)c2c(n1)C(=O)N[C@@H]2c1cc(F)ccc1Cl` [Compound I-271] displayed an IC50 of 1000 to 10000 nM. Turning to `CC(C)(O)c1cc(NC(=O)c2cc(F)cc(C(F)(F)F)c2)c2c(n1)C(=O)N[C@H]2c1cc(F)ccc1Cl` [Compound I-272], the IC50 fell in the range of 100 to 500 nM.

Compound `Nc1cc(NC(=O)c2cc(F)cc(C(F)(F)F)c2)c2c(n1)C(=O)NC2c1cc(F)ccc1Cl` (stereo not shown) [Compound I-273] yielded an IC50 of 100 to 500 nM. For the compound `O=C(Nc1cnc(N2CC(F)(F)C2)c2c1C(Cl)(c1cc(F)ccc1Cl)NC2=O)c1cc(F)cc(C(F)(F)F)c1` (stereo not shown) [Compound I-274, N-(1-Chloro-1-(2-chloro-5-fluorophenyl)-4-(3,3-difluoroazetidin-1-yl)-3-oxo-2,3-dihydro-1H-pyrrolo[3,4-c]pyridin-7-yl)-3-fluoro-5-(trifluoromethyl)benzamide], the IC50 lay within 1000 to 10000 nM.

`O=C(Nc1cc(NCC(F)F)cc2c1C(c1cc(F)ccc1Cl)NC2=O)c1cc(F)cc(C(F)(F)F)c1` (stereo not shown) [Compound I-275]: the IC50 is ≤ 100 nM. For the compound `Cc1ccccc1C1NC(=O)c2c(C(=O)NCC(F)F)ccc(NC(=O)c3nsc4ccccc34)c21` (stereo not shown) [Compound I-276], the IC50 is ≤ 100 nM.
